Measured values taken from patent US7521478B2, “Total synthesis of myriaporones” (Pharma Mar, S.A.U., priority 2002, dated 2009).

Experiments:
Assay type in all cases: cell-based
[1] = test system: DU-145; test: Inhibition of cell growth by colorimetric SRB assay, DU-145; conditions: Homo sapiens, DU-145, 48 hours exposure; for CC50: cell killing, read-out: LC50 (the source's name); for IC (total growth inhibition): read-out: TGI
Description: (§1) The finality of these assays is to interrupt the growth of a “in vitro” tumor cell culture by means a continued exhibition of the cells to the sample to be testing.
(§2) Inhibition of Cell Growth by Colorimetric Assay.
(§3) A colorimetric type of assay, using sulforhodamine B (SRB) reaction has been adapted for a quantitative measurement of cell growth and viability (following the technique described by P. A. Skehan, et al., J. Natl. CancerInst. 1990, 82, 1107-1112).
(§4) This form of assay employs 96 well cell culture microplates of 9 mm diameter (T. Mosmann et al., J. of Immuological Methods 1983, 65, 55-63; G. T. Faircloth et al., J. of Tissue and Culture Methods 1988, 11, 201-205). Most of the cell lines are obtained from American Type Culture Collection (ATCC) derived from different human cancer types.
(§5) Cells are maintained in RPMI 1640 10% FBS, supplemented with 0.1 g/L penicillin and 0.1 g/L streptomycin sulfate and then incubated at 37° C., 5% CO2 and 98% humidity. For the experiments, cells were harvested from subconfluent cultures using trypsin and resuspended in fresh medium before plating.
(§6) Cells are seeded in 96 well microtiter plates, at 5×10^3 cells per well in aliquots of 195 μL medium, and they are allowed to attach to the plate surface by growing in drug free medium for 18 hours. Afterward, samples are added in aliquots of 5 μL in a ranging from 10 to 10^−8 μg/mL, dissolved in DMSO/EtOH/PBS (0.5:0.5:99). After 48 hours exposure, the antitumor effect are measured by the SRB methodology: cells are fixed by adding 50 μL of cold 50% (wt/vol) trichloroacetic acid (TCA) and incubated for 60 minutes at 4° C. Plates are washed with deionizer water and dried. One hundred μl of SRB solution (0.4% wt/vol in 1% acetic acid) is added to each microliter well and incubated for 10 minutes at room temperature. Unbound SRB is removed by washing with 1% acetic acid. Plates are air dried and bound stain is solubilized with Tris buffer. Optical densities are read on a automated spectrophotometric plate reader at a single wavelength of 490 nm.
(§7) The values for mean +/−SD of data from triplicate wells are calculated. Some parameters for cellular responses can be calculated: GI=growth inhibition, TGI=total growth inhibition (cytostatic effect) and LC=cell killing (cytotoxic effect).

[2] = test system: IGROV-ET; test: Inhibition of cell growth by colorimetric SRB assay, IGROV-ET; conditions: Homo sapiens, IGROV-ET, 48 hours exposure; for CC50: cell killing, read-out: LC50 (the source's name); for IC (total growth inhibition): read-out: TGI
Description: as §1, §2, §3, §4, §5, §6, §7

[3] = test system: SK-BR-3; test: Inhibition of cell growth by colorimetric SRB assay, SK-BR-3; conditions: SK-BR-3, 48 hours exposure; for GI50 / CC50: Homo sapiens; for CC50: cell killing, read-out: LC50 (the source's name); for TGI: total growth inhibition
Description: as §1, §2, §3, §4, §5, §6, §7

[4] = test system: SK-MEL-28; test: Inhibition of cell growth by colorimetric SRB assay, MEL-28; conditions: Homo sapiens, SK-MEL-28, MEL-28, 48 hours exposure; for CC50: cell killing, read-out: LC50 (the source's name); for IC (total growth inhibition): read-out: TGI
Description: as §1, §2, §3, §4, §5, §6, §7

[5] = test system: A-549; test: Inhibition of cell growth by colorimetric SRB assay, A-549; conditions: Homo sapiens, A549, A-549, 48 hours exposure; for CC50: cell killing, read-out: LC50 (the source's name); for IC (total growth inhibition): read-out: TGI
Description: as §1, §2, §3, §4, §5, §6, §7

[6] = test system: PANC-1; test: Inhibition of cell growth by colorimetric SRB assay, PANC-1; conditions: Homo sapiens, PANC-1, 48 hours exposure; for CC50: cell killing, read-out: LC50 (the source's name); for IC (total growth inhibition): read-out: TGI
Description: as §1, §2, §3, §4, §5, §6, §7

[7] = test system: LoVo; test: Inhibition of cell growth by colorimetric SRB assay, LOVO; conditions: Homo sapiens, LOVO, 48 hours exposure; for LC50: cell killing, read-out: LC50; for IC (total growth inhibition): read-out: TGI
Description: as §1, §2, §3, §4, §5, §6, §7

[8] = test system: LoVo-Dox; test: Inhibition of cell growth by colorimetric SRB assay, LOVO-DOX; conditions: Homo sapiens, LOVO-DOX, 48 hours exposure; for LC50 (concentration for 50% cell killing): read-out: LC50; for IC (total growth inhibition): read-out: TGI
Description: as §1, §2, §3, §4, §5, §6, §7

[9] = test system: HeLa; test: Inhibition of cell growth by colorimetric SRB assay, HELA; conditions: Homo sapiens, HELA, 48 hours exposure; for CC50: cell killing, read-out: LC50 (the source's name); for IC (total growth inhibition): read-out: TGI
Description: as §1, §2, §3, §4, §5, §6, §7

[10] = test system: HeLa-APL; test: Inhibition of cell growth by colorimetric SRB assay, HELA-APL; conditions: Homo sapiens, HELA-APL, 48 hours exposure; for CC50: cell killing, read-out: LC50 (the source's name)
Description: as §1, §2, §3, §4, §5, §6, §7

[11] = test system: IGROV; test: Inhibition of cell growth by colorimetric SRB assay, IGROV; conditions: Homo sapiens, 48 hours exposure; for CC50: cell killing, read-out: LC50 (the source's name); for IC (total growth inhibition): read-out: TGI
Description: as §1, §2, §3, §4, §5, §6, §7

[12] = test system: HT-29; test: Inhibition of cell growth by colorimetric SRB assay, HT-29; conditions: Homo sapiens, HT-29, 48 hours exposure; for CC50: cell killing, read-out: LC50 (the source's name); for IC (total growth inhibition): read-out: TGI
Description: as §1, §2, §3, §4, §5, §6, §7

Row | SMILES | GI50 [1] | CC50 [1] | IC (total growth inhibition) [1] | GI50 [2] | CC50 [2] | IC (total growth inhibition) [2] | GI50 [3] | CC50 [3] | TGI [3] | GI50 [4] | CC50 [4] | IC (total growth inhibition) [4] | GI50 [5] | CC50 [5] | IC (total growth inhibition) [5] | GI50 [6] | CC50 [6] | IC (total growth inhibition) [6] | GI50 [7] | LC50 [7] | also measured
1 | C/C=C\[C@H](C)[C@H]1OC1(C)[C@@H](O[Si](C)(C)C(C)(C)C)[C@@H](CO[Si](C)(C)C(C)(C)C)C(=O)[C@@H](CO[Si](C)(C)C(C)(C)C)[C@@H](CC(=O)CC)O[Si](C)(C)C(C)(C)C (stereo partly drawn) [Compound 30b] | 12.1 µM | 12.1 µM | 12.1 µM | 8.27 µM | 12.1 µM | 12.1 µM | 12.1 µM | 12.1 µM | 1.21E−05 Molar | 12.1 µM | 12.1 µM | 12.1 µM | 12.1 µM | 12.1 µM | 12.1 µM | 12.1 µM | 12.1 µM | 12.1 µM | 6.88 µM | 12.1 µM | IC (total growth inhibition) [7]: 12.1 µM; GI50 [8]: 12.1 µM; LC50 (concentration for 50% cell killing) [8]: 12.1 µM; IC (total growth inhibition) [8]: 12.1 µM; GI50 [9]: 12.1 µM; CC50 [9]: 12.1 µM; IC (total growth inhibition) [9]: 12.1 µM; CC50 [10]: 12.1 µM
2 | C/C=C\[C@H](C)[C@H]1OC1(C)[C@@H](O[Si](C)(C)C(C)(C)C)[C@@H](CO[Si](C)(C)C(C)(C)C)C(=O)[C@@H](CO[Si](C)(C)C(C)(C)C)[C@H](CC(=O)CC)O[Si](C)(C)C(C)(C)C (stereo partly drawn) [Compound 30a] | 12.1 µM | 12.1 µM | 12.1 µM | 8.27 µM | 12.1 µM | 12.1 µM | 8.56 µM | 12.1 µM | 1.21E−05 Molar | 12.1 µM | 12.1 µM | 12.1 µM | 12.1 µM | 12.1 µM | 12.1 µM | 12.1 µM | 12.1 µM | 12.1 µM | 6.37 µM | 12.1 µM | IC (total growth inhibition) [7]: 12.1 µM; GI50 [8]: 12.1 µM; LC50 (concentration for 50% cell killing) [8]: 12.1 µM; IC (total growth inhibition) [8]: 12.1 µM; GI50 [9]: 12.1 µM; CC50 [9]: 12.1 µM; IC (total growth inhibition) [9]: 12.1 µM; CC50 [10]: 12.1 µM
3 | C/C=C\[C@H](C)[C@H]1OC1(C)[C@@H](O[Si](C)(C)C(C)(C)C)[C@@H](CO)C(=O)[C@@H](CO)[C@H](O)CC(=O)CC (stereo partly drawn) [31b + 31d] | 20.5 µM | 20.5 µM | 20.5 µM | 20.5 µM | 20.5 µM | 20.5 µM | 20.2 µM | 20.5 µM | 2.05E−05 Molar | 20.5 µM | 20.5 µM | 20.5 µM | 20.5 µM | 20.5 µM | 20.5 µM | 12.6 µM | 20.5 µM | 20.5 µM | 20.5 µM | 20.5 µM | GI50 [11]: 16.5 µM; CC50 [11]: 20.5 µM; IC (total growth inhibition) [11]: 20.5 µM; GI50 [12]: 20.5 µM; CC50 [12]: 20.5 µM; IC (total growth inhibition) [12]: 20.5 µM; IC (total growth inhibition) [7]: 20.5 µM; GI50 [8]: 20.5 µM; LC50 (concentration for 50% cell killing) [8]: 20.5 µM; IC (total growth inhibition) [8]: 20.5 µM; GI50 [9]: 20.5 µM; CC50 [9]: 20.5 µM; IC (total growth inhibition) [9]: 20.5 µM; CC50 [10]: 20.5 µM
4 | C/C=C\[C@H](C)[C@H]1OC1(C)[C@@H](O)[C@@H](CO)C(=O)[C@@H](CO)[C@H](O)CC(=O)CC (stereo partly drawn) [3d + 4d] | 26.8 µM | 26.8 µM | 26.8 µM | 17.1 µM | 26.8 µM | 26.8 µM | 20.5 µM | 26.8 µM | 2.68E−05 Molar | 26.8 µM | 26.8 µM | 26.8 µM | 26.8 µM | 26.8 µM | 26.8 µM | 13.5 µM | 26.8 µM | 26.8 µM | 26.8 µM | 26.8 µM | GI50 [11]: 20.5 µM; CC50 [11]: 26.8 µM; IC (total growth inhibition) [11]: 26.8 µM; GI50 [12]: 26.8 µM; CC50 [12]: 26.8 µM; IC (total growth inhibition) [12]: 26.8 µM; IC (total growth inhibition) [7]: 26.8 µM; GI50 [8]: 26.8 µM; LC50 (concentration for 50% cell killing) [8]: 26.8 µM; IC (total growth inhibition) [8]: 26.8 µM; GI50 [9]: 26.8 µM; CC50 [9]: 26.8 µM; IC (total growth inhibition) [9]: 26.8 µM; CC50 [10]: 26.8 µM; GI50 ([10]; read-out: GI50): 26.8 µM; IC (total growth inhibition) ([10]; total growth inhibition, read-out: TGI): 26.8 µM
